Data set [1] relates to Pol II transcription. As to the kind of experiment: Pol II transcription status: CUGBP and SC35 immunolabeling. The class given is cell-based. From the text:
To further determine whether metarrestin interferes with Pol II transcription in general, CUGBP was immunolabeled. The steady state nuclear distribution of CUGBP, a multifunctional hnRNP protein highly enriched in the PNC, is dependent upon Pol II transcription.

Data set [2] can be described thus: Anchorage-independent growth, soft agar assay of screening hits. The class given is cell-based. To be noted: screening hit. The source says:
(§1) A metastatic prostate cancer cell line, PC3M, was developed in order to screen small molecules that effectively disassemble PNCs (see Pettaway, et al., “Selection of highly metastatic variants of different human prostatic carcinomas using orthotopic implantation in nude mice,” Clin. Cancer Res., (2): 1627-36 (1996), incorporated herein in its entirety). PC3M has a […] stably express GFP-PTB (polypyrimidine track binding protein) (FIG. 1, top panels), an essential component of PNCs (see Huang, et al., “The perinucleolar compartment and transcription,” Journal of Cell Biology, (143): 35-47 (1998), incorporated herein in its entirety). Compounds able to reduce PNC prevalence by 50% were filtered in secondary assays to eliminate those that induced apoptosis, DNA damage, generic cytotoxicity, or cell-cycle blockage (see Norton, et al., “Automated high-content screening for compounds that disassemble the perinucleolar compartment,” J Biomol Screen, (14): 1045-53 (2009) and Frankowski, et al., “Discovery and Development of Small Molecules That Reduce PNC Prevalence, in Probe Reports from the NIH Molecular Libraries Program, Bethesda (Md.).(2010), incorporated herein in their entirety). The remaining hits were evaluated for invasion inhibition through MATRIGEL gelatinous protein mixture and anchorage-independent growth inhibition using soft agar assays.

Data set [3] relates to PC3M-GFP-PTB cells. As to the kind of experiment: PNC prevalence / PNC disassembly in PC3M-GFP-PTB cells. Format: cell-based, human. Conditions: screening hit.
From the text: FIG. 1 is a graph showing the concentration-response curve against PNC prevalence in PC3M (a metastatic prostate cancer cell line)-GFP (green fluorescent protein)-PTB (polypyrimidine tract-binding protein) cells (squares, PC3M, has a PNC prevalence of 75-85% in the absence of treatment) and cytotoxicity as measured by cellular ATP (CELLTITER GLO™) (circles). Representative PTB-GFP images for cells at the indicated concentrations (arrowheads indicate PNCs) (scale bar=5 μm) are shown in the three panels above the graph. The relative signal (%) is along the y-axis and Metarrestin [log M] is along the x-axis.
as §1

The nature of data set [4]: Invasion through MATRIGEL, screening hits. Format: cell-based. To be noted: screening hit.
From the text: as §1

Data set [5] is described as follows: Cytotoxicity secondary assay of screening hits. The class given is cell-based. Conditions: screening hit.
From the text: as §1

Data set [6] has as its system PC3M cells. As to the kind of experiment: PNC disassembly by biotin-metarrestin in cultured cells. Format: cell-based, human. Conditions: 1 μM, 24 hours (FIG. 60). The method, then:
FIG. 60 is a set of panels showing the effectiveness of biotin-metarrestin in disassembling PNCs. The effects of metarrestin and biotin-metarrestin were compared in PC3M cells treated at 1 μM or untreated for 24 hours. Arrows indicate PNCs. Scale bar=5 μm.

`CC[C@H](C)[C@@H]1NC(=O)CNC(=O)[C@@H]2Cc3c([nH]c4cc(O)ccc34)[S+]([O-])C[C@@H](NC(=O)CNC1=O)C(=O)N[C@@H](CC(N)=O)C(=O)N1C[C@H](O)C[C@H]1C(=O)N[C@@H]([C@@H](C)[C@@H](O)CO)C(=O)N2` (stereo in doubt) [α-amanitin, reference compound]: in data set [1], the “Localization of CUGBP” value is on record as “induces a localization shift to the cytoplasm” and the SC35 distribution pattern entry is given as “changed to isolated large dots”.

Take `N=c1c2c(-c3ccccc3)c(-c3ccccc3)n(Cc3ccccc3)c2ncn1CCCO` [MLS000556915]: the Soft agar growth entry in data set [2] was “soft agar growth inhibitor”. In addition, in data set [3], the PNC inhibition entry is reported as “potency as a PNC inhibitor”. For the same compound, the Invasion result in data set [4] was “ability to block invasion”. The Cytotoxicity entry in data set [5] is recorded as “lack of cytotoxicity”.

Regarding `N=c1c2c(-c3ccccc3)c(-c3ccccc3)n(Cc3cccc(C#CCCCCNC(=O)CCCC[C@@H]4SC[C@@H]5NC(=O)N[C@@H]54)c3)c2ncn1[C@H]1CC[C@H](O)CC1` [biotin-conjugated metarrestin, N-(6-(3-((3-(trans-4-hydroxycyclohexyl)-4-imino-5,6-diphenyl-3,4-dihydro-7H-pyrrolo[2,3-d]pyrimidin-7-yl)methyl)phenyl)hex-5-yn-1-yl)-5-((3aS,4S,6aR)-2-oxohexahydro-1H-thieno[3,4-d]imidazol-4-yl)pentanamide], in data set [6], the “PNC disassembly in cultured cells” value is “maintains its efficacy for PNC disassembly”.

Values taken from patent publication US20210186972A1, “FORMULATIONS AND METHODS FOR THE PREVENTION AND TREATMENT OF TUMOR METASTASIS AND TUMORIGENESIS” (THE UNITED STATES OF AMERICA, AS REPRESENTED BY THE …, priority 2018, published 2021).
